The values that follow come from patent US20250032465A1, “METHODS OF TREATING CNS DISORDERS” (HANGZHOU HIGHLIGHTLL PHARMACEUTICAL CO., LTD, priority 2021, published 2025).

This test deals with BV2 cells. Briefly: IL-6, TNF and MCP-1 production in LPS-stimulated BV2 cells (CBA assay). It counts as cell-based. The conditions noted are these: for inhibition at 1.7 µM: Mus musculus, BV-2, LPS-treated BV2 cells. As to the method:
This testing was performed to test the ability of compounds to alleviate the injury of HT22 cells induced by LPS activated BV2 cells. The testing was performed according to the following procedure: 1) Microglia BV2 cells were co-cultured on transwell inserts with HT22hippocampal neurons. BV2 cells were stimulated with LPS (200 ng/ml) for 96 h after treatment with a compound of Formula (II) at 1.7 μM. 2) HT22 cells were pre-treated with a compound of Formula (II) at 1.7 μM for 30 min and subsequently stimulated with LPS (200 ng/ml) for 96 h. 3) BV2 cells were treated using LPS. IL-6, TNF and MCP-1 productions were measured in cell supernatants using CBA assay.
In LPS-treated BV2 cells, there was a marked increase in IL-6, TNF and MCP-1 production, when compared to unstimulated cells.

“Also recorded” adds a separate entry of the source. Where two headings read alike, the source gives them in different places.

Take `Cc1nc2cnc3ccoc3c2n1[C@H]1CC[C@H](CC#N)OC1` [Formula (II)]: the “IL-6, TNF and MCP-1 production (in words)” value (LPS-stimulated BV2 cells, pre-treatment) is reported as “dose-dependently reduced; also recorded: inhibited”. Besides, the inhibition at 1.7 µM is, setting by setting: (read-out: Inhibition of IL-6 production) 49.1%; (read-out: Inhibition of MCP-1 production) 56.9%; (read-out: Inhibition of TNF production) 39.9%.

A word on the inhibition: it is the percentage by which the read-out fell short of the control.
